Test results as given in patent US20250346593A1, “IMIDAZO(1,2-1)PYRIDINE DERIVATIVES AS RIPK2 INHIBITORS” (Interline Therapeutics, Inc., priority 2022, published 2025).
Read-outs that look alike come from different tables or passages of the source.

How the values were obtained:
[1] = tested on: NF-κB pathway (SEAP) in THP1-Dual cells; test: THP-1 Dual cell SEAP assay (L18-MDP stimulated); type: cell-based; conditions: Homo sapiens, THP1-Dual, read-out: NFkB THP1 IC50
[2] = molecular target: GST-RIPK2 fusion protein (human RIPK2 amino acids 1-310) (Homo sapiens (Human), UniProt O43353); test: RIPK2 binding competition assay (TR-FRET, Tracer 199)
[3] = read-out: RIPK2 IC50, RIPK2 binding competition assay

Sequence of GST-RIPK2 fusion protein (human RIPK2 amino acids 1-310) (O43353 1-310): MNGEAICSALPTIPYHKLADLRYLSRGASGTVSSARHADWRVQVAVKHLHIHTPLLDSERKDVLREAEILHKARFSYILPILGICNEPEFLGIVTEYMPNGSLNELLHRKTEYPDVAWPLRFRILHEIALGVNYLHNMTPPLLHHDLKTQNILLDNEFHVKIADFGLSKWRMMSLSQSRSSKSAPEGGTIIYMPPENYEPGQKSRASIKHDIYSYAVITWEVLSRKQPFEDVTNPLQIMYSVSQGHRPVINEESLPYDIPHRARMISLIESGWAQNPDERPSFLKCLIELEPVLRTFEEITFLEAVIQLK

COc1cc2ncc(-c3cc(N)nc(C(F)(F)F)c3)n2cc1S(=O)(=O)C(C)(C)C [Example 6, 4-(6-(tert-butylsulfonyl)-7-methoxyimidazo[1,2-a]pyridin-3-yl)-6-(trifluoromethyl) pyridin-2-amine]
IC50 [1]: > 1000 nM | IC50 [2]: 2.5 to 20 nM

CNc1cncc(-c2cnc3cc(OC)c(S(=O)(=O)C(C)(C)C)cn23)c1 [Example 34, 5-(6-(tert-butylsulfonyl)-7-methoxyimidazo[1,2-a]pyridin-3-yl)-N-methylpyridin-3-amine]
IC50 [1]: > 1000 nM | IC50 [2, 3]: > 20 nM

CCCS(=O)(=O)Nc1cc(-c2cnc3cc(OC)c(S(=O)(=O)C(C)(C)C)cn23)ccc1F [Example 291, N-(5-(6-(tert-butylsulfonyl)-7-methoxyimidazo[1,2-a]pyridin-3-yl)-2-fluorophenyl)propane-1-sulfonamide]
IC50 [1]: 250 to 1000 nM | IC50 [2]: 2.5 to 20 nM

COc1cc2ncc(-c3cc(N)ccc3F)n2cc1S(=O)(=O)C(C)(C)C [Example 32, 3-(6-(tert-butylsulfonyl)-7-methoxyimidazo[1,2-a]pyridin-3-yl)-4-fluoroaniline]
IC50 [1]: > 1000 nM | IC50 [2, 3]: > 20 nM

COc1cc(N)cc(-c2cnc3cc(OC)c(S(=O)(=O)C(C)(C)C)cn23)c1 [Example 46, 3-(6-(tert-butylsulfonyl)-7-methoxyimidazo[1,2-a]pyridin-3-yl)-5-methoxyaniline]
IC50 [1]: 50 to 250 nM | IC50 [2]: 2.5 to 20 nM

COc1cc2ncc(-c3ccc(N)c(Cl)c3)n2cc1S(=O)(=O)C(C)(C)C [Example 85, 4-(6-(tert-butylsulfonyl)-7-methoxyimidazo[1,2-a]pyridin-3-yl)-2-chloroaniline]
IC50 [1]: 250 to 1000 nM | IC50 [2]: 2.5 to 20 nM

COc1cc(-c2cnc3cc(OC)c(S(=O)(=O)C(C)(C)C)cn23)cc(N)n1 [Example 53, 4-(6-(tert-butylsulfonyl)-7-methoxyimidazo[1,2-a]pyridin-3-yl)-6-methoxypyridin-2-amine]
IC50 [1]: 50 to 250 nM | IC50 [2]: 2.5 to 20 nM

COc1cc2ncc(-c3ccc(NS(C)(=O)=O)nc3)n2cc1S(=O)(=O)C(C)(C)C [Example 148, N-(5-(6-(tert-butylsulfonyl)-7-methoxyimidazo[1,2-a]pyridin-3-yl)pyridin-2-yl)methanesulfonamide]
IC50 [1]: > 1000 nM | IC50 [2, 3]: > 20 nM

COc1cc2ncc(-c3ccc(OC(F)(F)F)c(N)n3)n2cc1S(=O)(=O)C(C)(C)C [Example 334, 6-(6-(tert-butylsulfonyl)-7-methoxyimidazo[1,2-a]pyridin-3-yl)-3-(trifluoromethoxy)pyridin-2-amine]
IC50 [1]: > 1000 nM | IC50 [2, 3]: > 20 nM

COc1cc2ncc(-c3ccc(N)c(F)c3F)n2cc1S(=O)(=O)C(C)(C)C [Example 83, 4-(6-(tert-butylsulfonyl)-7-methoxyimidazo[1,2-a]pyridin-3-yl)-2,3-difluoroaniline]
IC50 [1]: > 1000 nM | IC50 [2, 3]: > 20 nM

COc1cc2ncc(-c3cc(C#N)c(N)cc3F)n2cc1S(=O)(=O)C(C)(C)C [Example 80, 2-amino-5-(6-(tert-butylsulfonyl)-7-methoxyimidazo[1,2-a]pyridin-3-yl)-4-fluorobenzonitrile]
IC50 [1]: 250 to 1000 nM | IC50 [2]: 2.5 to 20 nM

COc1cc2ncc(-c3cc(C#N)c(N)nc3F)n2cc1S(=O)(=O)C(C)(C)C [Example 107, 2-amino-5-(6-(tert-butylsulfonyl)-7-methoxyimidazo[1,2-a]pyridin-3-yl)-6-fluoronicotinonitrile]
IC50 [1]: > 1000 nM | IC50 [2]: 2.5 to 20 nM

CCCS(=O)(=O)Nc1cc(-c2cnc3cc(OC)c(S(=O)(=O)C(C)(C)C)cn23)cc(OC(F)(F)F)c1F [Example 138, N-{2-fluoro-5-[7-methoxy-6-(2-methylpropane-2-sulfonyl)imidazo[1,2-a]pyridin-3-yl]-3-(trifluoromethoxy)phenyl}propane-1-sulfonamide]
IC50 [1]: > 1000 nM | IC50 [2, 3]: > 20 nM

COc1cc2ncc(-c3cc(C)c(F)c(N)c3)n2cc1S(=O)(=O)C(C)(C)C [Example 48, 5-(6-(tert-butylsulfonyl)-7-methoxyimidazo[1,2-a]pyridin-3-yl)-2-fluoro-3-methylaniline]
IC50 [1]: > 1000 nM | IC50 [2, 3]: > 20 nM

CCCS(=O)(=O)Nc1cc(-c2cnc3ccccn23)cc(F)c1OC [Example 144, N-(3-fluoro-5-(imidazo[1,2-a]pyridin-3-yl)-2-methoxyphenyl) propane-1-sulfonamide]
IC50 [1]: > 1000 nM | IC50 [2, 3]: > 20 nM

COc1cc2ncc(-c3cc(F)nc(N[C@@H]4CCC[C@@H](O)C4)c3)n2cc1S(=O)(=O)C(C)(C)C (racemic) [Example 205, rac-(1R,3R)-3-((4-(6-(tert-butylsulfonyl)-7-methoxyimidazo[1,2-a]pyridin-3-yl)-6-fluoropyridin-2-yl)amino)cyclohexan-1-ol]
IC50 [1]: 50 to 250 nM | IC50 [2]: 1 to 2.5 nM

COc1cc2ncc(-c3cc(F)nc(NCCSC)c3)n2cc1S(=O)(=O)C(C)(C)C [Example 235, 4-(6-(tert-butylsulfonyl)-7-methoxyimidazo[1,2-a]pyridin-3-yl)-6-fluoro-N-(2-(methylthio)ethyl) pyridin-2-amine]
IC50 [1]: < 50 nM | IC50 [2]: 1 to 2.5 nM

COc1cc2ncc(-c3cc(N)cc(OC(F)F)c3)n2cc1S(=O)(=O)C(C)(C)C [Example 42, 3-(6-(tert-butylsulfonyl)-7-methoxyimidazo[1,2-a]pyridin-3-yl)-5-(difluoromethoxy)aniline]
IC50 [1]: 250 to 1000 nM | IC50 [2]: 2.5 to 20 nM

COc1cc2ncc(-c3cc(F)c(C#N)c(NCCCO)c3)n2cc1S(=O)(=O)C(C)(C)C [Example 214, 4-(6-(tert-butylsulfonyl)-7-methoxyimidazo[1,2-a]pyridin-3-yl)-2-fluoro-6-((3-hydroxypropyl)amino) benzonitrile]
IC50 [1]: 50 to 250 nM | IC50 [2]: 2.5 to 20 nM

COc1cc2ncc(-c3ccc(N)nc3)n2cc1S(=O)(=O)C(C)(C)C [Example 15, 5-(6-(tert-butylsulfonyl)-7-methoxyimidazo[1,2-a]pyridin-3-yl)pyridin-2-amine]
IC50 [1]: > 1000 nM | IC50 [2, 3]: > 20 nM

COc1cc2ncc(-c3ccc(N)c(OC)c3F)n2cc1S(=O)(=O)C(C)(C)C [Example 76, 4-(6-(tert-butylsulfonyl)-7-methoxyimidazo[1,2-a]pyridin-3-yl)-3-fluoro-2-methoxyaniline]
IC50 [1]: > 1000 nM | IC50 [2, 3]: > 20 nM

COc1cc2ncc(-c3ccc(N4CCCC4=O)nc3)n2cc1S(=O)(=O)C(C)(C)C [Example 67, 1-(5-(6-(tert-butylsulfonyl)-7-methoxyimidazo[1,2-a]pyridin-3-yl)pyridin-2-yl)pyrrolidin-2-one]
IC50 [1]: > 1000 nM | IC50 [2, 3]: > 20 nM

CCCS(=O)(=O)Nc1nc(-c2cnc3cc(OC)c(S(=O)(=O)C(C)(C)C)cn23)ccc1OC [compound 314, N-(6-(6-(tert-butylsulfonyl)-7-methoxyimidazo[1,2-a]pyridin-3-yl)-3-methoxypyridin-2-yl)propane-1-sulfonamide]
IC50 [1]: > 1000 nM | IC50 [2, 3]: > 20 nM

COc1cc2ncc(-c3cc(F)c(OC)c(NCCNC(=O)OC(C)(C)C)c3)n2cc1S(=O)(=O)C(C)(C)C [Example 308, tert-butyl (2-((5-(6-(tert-butylsulfonyl)-7-methoxyimidazo[1,2-a]pyridin-3-yl)-3-fluoro-2-methoxyphenyl)amino)ethyl)carbamate]
IC50 [1]: 50 to 250 nM | IC50 [2]: 1 to 2.5 nM

COc1cc2ncc(-c3cnn(CCO)c3)n2cc1S(=O)(=O)C(C)(C)C [Example 324, 2-(4-(6-(tert-butylsulfonyl)-7-methoxyimidazo[1,2-a]pyridin-3-yl)-1H-pyrazol-1-yl)ethan-1-ol]
IC50 [1]: > 1000 nM | IC50 [2, 3]: > 20 nM

CCCS(=O)(=O)Nc1cc(-c2cnc3cc(OC)c(S(=O)(=O)C(C)(C)C)cn23)cc(C#N)c1OC [Example 259, N-(5-(6-(tert-butylsulfonyl)-7-methoxyimidazo[1,2-a]pyridin-3-yl)-3-cyano-2-methoxyphenyl)propane-1-sulfonamide]
IC50 [1]: 250 to 1000 nM | IC50 [2]: 2.5 to 20 nM

COc1cc2ncc(-c3cccc(NCCCO)c3)n2cc1S(=O)(=O)C(C)(C)C [Example 320, 3-((3-(6-(tert-butylsulfonyl)-7-methoxyimidazo[1,2-a]pyridin-3-yl)phenyl)amino)propan-1-ol]
IC50 [1]: > 1000 nM | IC50 [2, 3]: > 20 nM

COc1cc2ncc(-c3cc(F)nc(NCCCC(C)(C)O)c3)n2cc1S(=O)(=O)C(C)(C)C [Example 182, 5-((4-(6-(tert-butylsulfonyl)-7-methoxyimidazo[1,2-a]pyridin-3-yl)-6-fluoropyridin-2-yl)amino)-2-methylpentan-2-ol]
IC50 [1]: < 50 nM | IC50 [2, 3]: < 1 nM

COc1cc2ncc(-c3cc(F)c(N)c(N)c3F)n2cc1S(=O)(=O)C(C)(C)C [Example 40, 4-(6-(tert-butylsulfonyl)-7-methoxyimidazo[1,2-a]pyridin-3-yl)-3,6-difluorobenzene-1,2-diamine]
IC50 [1]: 250 to 1000 nM | IC50 [2]: 2.5 to 20 nM

COc1cc2ncc(-c3ccc(OC)c(N)c3F)n2cc1S(=O)(=O)C(C)(C)C [Example 28, 3-(6-(tert-butylsulfonyl)-7-methoxyimidazo[1,2-a]pyridin-3-yl)-2-fluoro-6-methoxyaniline]
IC50 [1]: > 1000 nM | IC50 [2]: 2.5 to 20 nM

COc1cc2ncc(-c3cc(F)nc(NCC4(O)CC4)c3)n2cc1S(=O)(=O)C(C)(C)C [Example 208, 1-(((4-(6-(tert-butylsulfonyl)-7-methoxyimidazo[1,2-a]pyridin-3-yl)-6-fluoropyridin-2-yl)amino)methyl) cyclopropan-1-ol]
IC50 [1]: < 50 nM | IC50 [2]: 1 to 2.5 nM

COc1cc2ncc(-c3ccc(F)c(N)c3F)n2cc1S(=O)(=O)C(C)(C)C [Example 27, 3-(6-(tert-butylsulfonyl)-7-methoxyimidazo[1,2-a]pyridin-3-yl)-2,6-difluoroaniline]
IC50 [1]: > 1000 nM | IC50 [2]: 2.5 to 20 nM

CCc1ccc(-c2cnc3cc(OC)c(S(=O)(=O)C(C)(C)C)cn23)nc1N [Example 331, 6-(6-(tert-butylsulfonyl)-7-methoxyimidazo[1,2-a]pyridin-3-yl)-3-ethylpyridin-2-amine]
IC50 [1]: > 1000 nM | IC50 [2, 3]: > 20 nM
